Residues, ends and D or L forms follow the SMILES beside them. *: point of attachment. Palmitoyl = CCCCCCCCCCCCCCCC(=O)*
Columns and labels:
[1] = Critical micelle concentration (CMC) by Nile Red fluorescence; assay type: physicochemical; conditions: in water, Nile Red dye
Description: First, the solvatochromic probe Nile Red was used to examine the threshold concentrations for the spontaneous aggregation induced by hydrophobic collapse of peptides. Once the supramolecular structures of PA self-assemble in water at their CMC, the Nile Red dye can be solubilized in the hydrophobic cores of the PA assemblies, displaying an enhanced fluorescent intensity. Consequently, the fluorescent intensity maxima of Nile Red were at the emission wavelength of 630 nm in the solutions of CVK-PA and ACA-PA, whereas the emission wavelength was located at 660 nm in the Bi-Cardin peptide solutions (FIG. 4A-4D). […] To estimate the CMC of each peptide, the corrected fluorescent intensity (If,corrected) of Nile Red at its emission wavelength for each peptide solution was calculated using equation: If,corrected=If,sample−If,water, where If,sample is the average of the triplicate fluorescent intensity measurements in the sample and If,water is the fluorescent intensity of Nile Red in water without the peptide. The measurements of the corrected fluorescent intensity were plotted against the log 10 values of concentration of each peptide, then the CMC value was determined at the point of intersection of the plot of log peptide concentration and fluorescent intensity of Nile Red.

E. coli = assay: Viable colony count assay (bactericidal effect, 4 h); assay type: cell-based, Escherichia coli (ATCC #25922)
Procedure: (§1) The bactericidal effects of the peptides were examined using a viable colony count assay as well as the live/dead staining assay. For the viable colony count assay, bacteria were treated with peptides for 4 h and the resulting viable bacterial density of each sample was expressed by log10[CFU/mL]. For the Gram-positive bacteria tested, the decrease in bacterial density was dependent on the concentration of the ACA-PA (FIG. 8A). […] As for Gram-negative E. coli and MDR E. coli bacteria (FIG. 8B), the ACA nanorods, wherein the PA were added at a concentration above their CMC, had potent bactericidal effects. For example, the ACA nanorods at concentrations over 60 μM reduced the colony forming units of Gram-negative bacteria by about a five log unit reduction after 4 h compared with the untreated negative control sample.
(§2) The viable count assay was performed to quantify the bactericidal activity of each peptide. Stock solutions of peptides were diluted in 3% TSB media to concentrations ranging from 20 μM to 100 μM immediately before experiments. Heparin-ACA-PA were also prepared by mixing the ACA-PA stock solution with heparin (sodium salt from porcine intestinal mucosa, Sigma, St. Louis, MO) to 1:1, 1:2 and 1:3 weight ratios in water, and a final concentration of ACA-PA in the heparin-ACA-PA at each heparin weight ratio was adjusted to 80 μM for each experiment. The bacteria (10^6 CFU/mL) were incubated with peptides at 37° C. for 4 h. After incubation, serial dilutions of samples were plated on TSB agar and then incubated at 37° C. overnight. The colonies from each spot were manually counted, and the CFU number for each sample was determined. Experiments were conducted in triplicate and results were expressed as the log 10 values of the CFU number in each sample. Data were expressed by stand error of the mean (±S.E.M.) and N=3, *p<0.05 compared with control samples and #p<0.05 compared with bacteria treated with 40 μM of ACA-PA.

S. aureus [2] = assay: as above; assay type: cell-based, Staphylococcus aureus (ATCC #25923)
Procedure: as §1, §2

S. aureus [3] = assay: Bacterial growth inhibition (growth curves, OD562, 20 h); assay type: cell-based, Staphylococcus aureus (ATCC #25923)
Procedure: Gram-positive (S. aureus and MRSA) and Gram-negative (E. coli and MDR E. coli) bacteria were incubated with peptide concentrations ranging from 20 to 100 μM, and time-lapsed bacterial growth was monitored for 20 hours by determining the optical density at 562 nm (O.D. 562 nm). […] At the highest concentration tested (100 μM), the time to exponential growth phase of S. aurues was delayed by about 18 h (FIG. 5B), and was prolonged by almost 13 h for MRSA (FIG. 5A), while bacteria incubated without ACA-PA entered the exponential growth phase within 4 h. Gram-positive bacteria were also susceptible to the ACA-PA even below their CMC.
This assay was performed to investigate the inhibitory effects of each peptide against Gram-positive Staphylococcus aureus (S. aureus, ATCC #25923) and methicillin-resistant S. aureus (MRSA, ATCC #43300), as well as Gram-negative Escherichia coli (E. coli, ATCC #25922), and multidrug-resistant E. coli (MDR E. coli, ATCC #BAA-2471). In all experiments, solutions of each peptide at the concentrations from 20 μM to 100 μM in 3% Tryptic Soy Broth (TSB) media were freshly prepared. A single colony of bacteria was isolated from a stock agar plate and cultured overnight in 4 mL of 3% TSB on a shaking incubator set at 200 rpm and 37° C. The bacteria culture was adjusted to an optical density at 562 nm (OD562) to about 0.52 (10^9 cells/mL), and the resulting bacteria suspension was subsequently diluted to about 10^6 colony forming units (CFU) per mL in each sample. The control samples were bacteria incubated in TSB media without peptides. The bacteria were incubated inside a spectrophotometer (Spectra-Max Paradigm, Molecular Devices, Sunnyvale, CA) at 37° C. under static conditions for 20 h, and the bacterial growth curves were measured in terms of turbidity at OD562 every 2 minutes. The normalized OD562 values of samples were calculated by subtracting the […].

CCCCCCCCCCCCCCCC(=O)N[C@H](C(=O)N[C@H](C(=O)N[C@H](C(=O)N[C@H](C(=O)N[C@@H](CCCCN)C(=O)N[C@@H](CCCCN)C(=O)N[C@@H](CCCCN)C(=O)N[C@@H](CCCCN)C(=O)NCC(=O)N[C@@H](C)C(=O)N[C@@H](CCCCN)C(=O)N[C@@H](CCCCN)C(=O)N[C@@H](C)C(=O)N[C@@H](CCCNC(=N)N)C(=O)N[C@@H](C)C(=O)N[C@@H](C)C(=O)N[C@@H](CCCCN)C(=O)N[C@@H](CCCCN)C(=O)N[C@@H](C)C(=O)N[C@@H](CCCNC(=N)N)C(=O)N[C@@H](C)C(=O)O)C(C)C)C(C)C)C(C)C)C(C)C [ACA-PA, C16-V4K4G(AKKARA)2 (SEQ ID NO: 7)] (Palmitoyl-VVVVKKKKGAKKARAAKKARA-OH; N-terminus and C-terminus assumed)
CMC [1]: 45.7 µM | decrease in bacteria density (E. coli; E. coli (Gram-negative), 60 to 100 μM): 10,000 fold | reduction in bacteria density (E. coli; E. coli, concentrations lower than CMC, 4 h): no significant reduction in Gram-negative bacteria density | reduction of colony forming units (E. coli; E. coli, over 60 μM, 4 h, vs untreated control): five | decrease in bacteria density (S. aureus [2]; S. aureus (Gram-positive), 60 to 100 μM): ~100 fold | decline in bacteria density (S. aureus [2]; S. aureus, over 80 μM, 4 h): 100 fold | decrease of colony forming units (S. aureus [2]; S. aureus, over 80 μM, 4 h): two | delay of time to exponential growth phase (S. aureus [3]; 100 μM): about 18 h | bacterial growth inhibition (S. aureus [3]; 20 to 100 μM, 20 h): remarkably inhibited the proliferation | susceptibility of bacterial growth (S. aureus [3]; below the CMC): susceptible
